# According to US8916686B2, “TDF-related compounds and analogs thereof” (Thrasos Innovation, Inc., priority 2004, dated 2014):
# Like-named read-outs stand apart in the source and are kept apart here.
# Key:
# [1] = test system: mouse model of nephrotoxic serum nephritis; experiment: Nephrotoxic serum nephritis (NTN) model of chronic renal injury; type: in vivo; conditions: oral 5 mg/kg/24 hr
# Experimental: Attenuation of renal fibrosis progression by Thrasos compound in a mouse model of nephrotoxic serum nephritis. FIG. 8A: Kidney section of vehicle-treated animal, FIG. 8B: Kidney section of animal received oral administration of compound SEQ ID NO 45 (5 mg/kg/24 hr).
# Nephrotoxic serum nephritis (NTN) is a model of progressive chronic renal injury. Mice given injections of nephrotoxic serum (NTS) develop glomerulonephritis, leading to tubulointerstitial disease associated with EMT, and ultimately renal fibrosis, over a period of about six weeks. […] In these studies, BMP-7 was able to restore expression of E-cadherin proteins in previously damaged tubules. […] For a review of the above see, Zeisberg et al., Nature Medicine, 9; 7 pp 964-968, (2003) and Kalluri et al., J. Clin Investigation 112:1776-1784 (2003).
# ALK-3 = ALK-3 (Homo sapiens, UniProt P36894); experiment: Radioligand receptor binding assay (competition with 125I-labeled TDF-1)
# Sequence of ALK-3 (P36894 24-532, species assumed): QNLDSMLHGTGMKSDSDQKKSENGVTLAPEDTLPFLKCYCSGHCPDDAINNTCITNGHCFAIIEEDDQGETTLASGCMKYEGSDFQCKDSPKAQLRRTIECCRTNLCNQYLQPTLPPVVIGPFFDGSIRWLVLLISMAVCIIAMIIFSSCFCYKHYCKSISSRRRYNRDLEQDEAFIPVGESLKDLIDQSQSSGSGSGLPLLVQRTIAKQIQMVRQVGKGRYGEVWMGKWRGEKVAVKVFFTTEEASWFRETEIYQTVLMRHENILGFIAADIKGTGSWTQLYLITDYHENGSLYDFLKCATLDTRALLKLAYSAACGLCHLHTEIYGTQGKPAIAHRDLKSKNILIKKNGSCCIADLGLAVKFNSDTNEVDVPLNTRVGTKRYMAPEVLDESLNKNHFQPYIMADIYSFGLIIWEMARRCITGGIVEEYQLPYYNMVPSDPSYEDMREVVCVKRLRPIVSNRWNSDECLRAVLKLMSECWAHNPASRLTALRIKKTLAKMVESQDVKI
# Source text: General protocol: These assays are based on competition between ^125I-labeled TDF-1 (BMP-7 or OP-1) and candidate TDFRP compounds or unlabeled TDF-1 for binding to respective receptors (ALK-3, ALK-6 or BMPR-2). In brief, the procedure involves immobilization of receptor on 96 well Removawell plates, blocking the wells with 3% BSA in PBS and subsequently washing the wells. Increasing concentrations of unlabeled TDF-1 or TDFRP compounds or control (unlabeled TDF-1) prepared in binding buffer are then added. Incubate plate for 1 hour at room temperature, and then add a fixed amount of ^125I-labeled TDF-1 (250,000 to 350,000 cpm) to the wells and further incubate in cold (4° C.) for 20 hours. Aspirate the contents of the wells and wash the wells four times with a wash buffer, and count the receptor bound ^125I-labeled TDF-1 in an auto gamma counter.
# Using this procedure, TDFRP compound binding to select ALK receptors are assessed. Accordingly, TDFRP compounds that preferentially bind select ALK receptors can be identified. For example, TDFRP compounds that preferentially bind to ALK-3 receptor compared with binding to other ALK receptors, e.g., ALK-6 (FIG. 1 and FIG. 11).
# [2] = test system: CD1 mouse model of streptozotocin (STZ)-induced diabetic nephropathy; experiment: Streptozotocin (STZ)-induced diabetic nephropathy; type: in vivo; conditions: ip 5 mg/kg/24 hr; after one month treatment
# Experimental: Reversal of interstitial fibrosis by Thrasos compound SEQ ID NO 45 in a CD1 mouse model of streptozotocin (STZ)-induced diabetic nephropathy. FIG. 7A. schematic of the experimental protocol, FIG. 7B: Kidney section of vehicle-treated animal, FIG. 7C: Kidney section of animal received ip administration of Thrasos compound (5 mg/kg/24 hr). Sac: After one month treatment.
# [3] = test system: renal toxic effects of cisplatin in the rat; experiment: Cisplatin renal toxicity in male Sprague-Dawley rat; type: in vivo
# Experimental: Compound (SEQ ID #45) was tested in male Sprague-Dawley rats (250 gm to 300 gm) to establish the dose range and the extent to which the compound is able to prophylactically and therapeutically ameliorate the renal toxic effects of cisplatin. The cisplatin dosing level was the chemotherapeutic level used in humans, 40 ug/kg bw. The end points were the level of creatinine in serum and kidney histology. The positive control used was 250 ug/kg bw of the mature form of recombinant human BMP-7 (rhmBMP-7).
# A stock solution (70 mg/ml) of the test article (SEQ ID #45) was made by dissolving it in 20 mM Acetate (ph 4.2). The stock solution was further diluted into phosphate buffered saline (PBS, pH 7.2) plus 5% Mannitol to compound concentrations of 14 mg/ml (28 mg/kg dose), 1.4 mg/ml (2.8 mg/kg dose) and 0.14 mg/ml (0.28 mg/kg dose).
# Cisplatin was administered via i.p. injection (40 ug/kg bw) at time zero. Administration of therapeutic dosing of the compound, the rhmBMP-7 positive control and vehicle negative control were by slow bolus i.v. injection through the tail vein at five time points: 2 hours before the administration of cisplatin, then at 24 hours, 48 hours, 72 hours and 96 hours post cisplatin administration. Blood samples were collected through the tail vein at time points of 0, 24, 48, 72 and 96 hours. At seven day sample was collected by exsanguination at sacrifice. Serum was prepared from the blood samples and analyzed for creatinine concentration. The serum concentration of creatinine, a byproduct of muscle activity that is released into the blood stream and cleared through the kidneys, is a marker of kidney function that tends to rise when kidney function becomes severely compromised (FIG. 18).
# Upon sacrifice at seven days, the kidneys were harvested, fixed in formalin and imbedded in paraffin. They were then sagitally sectioned and stained in H&E stain. Kidney sections were also stained with anti-bodies against proliferating cell nuclear antigen (PCNA) (to identify sites of cell regeneration), macrophages, ICAM-1, and smooth muscle. Also collected at sacrifice were tissues at and around the injection site (FIG. 19A-FIG. 19B).
# HK-2 cells = experiment: Apoptosis detection using Annexin V immunostaining after cisplatin; type: cell-based, human; conditions: 10 uM cisplatin; 500 uM compound prophylactically or therapeutically
# Experimental: Apoptosis and cell viability are quantified using AnnexinV-FITC and propidium iodide staining of HK-2 cells following cisplatin treatment Immortalized PTEC-derived HK-2 cells (ATCC number CRL-2190) are cultured in serum-free keratinocyte medium (GIBCO number 17005-042) supplemented with EGF and BPE for 48 hours (Ryan et al. 1994 Kidney Int 45:48-57). Medium is aspirated and cells are washed with PBS and incubated in the dark for 15 min at room temperature with 10 μl of media binding agent and 1.25 μl of FITC conjugated AnnexinV. Propidium iodide (10 μl) is added, and samples are analyzed immediately. Quantification of Annexin V-FITC and propidium iodide signals is performed by fluorescence microscopy (Axiovert 135; Carl Zeiss). Phase contrast images are observed using transmitted light. Apoptotic cells show cytoplasmic staining and viable cells remain unstained (FIG. 14A-FIG. 14D).
sequence,measurement,setting,value
CYFDDSSNVLCKKYRS [SEQ ID NO 45],renal fibrosis,[1],significantly attenuated progression of renal fibrosis
same,differential binding to Type I receptors (ALK-3 compared to ALK-6),ALK-3,selectively binds to ALK-3
same,differential binding to Type I receptors (ALK-3 compared to ALK-6),ALK-3; listed as SEQ ID NO:45,binds preferentially to BMP type I receptors (ALK3)
same,renal interstitial fibrosis,[2],effectively reversed renal interstitial fibrosis
same,cisplatin-induced inflammation of the kidney cortex,[3]; 2.8 mg/kg bw,significantly reduced
same,ICAM-1 release,"[3]; 2.8 mg/kg bw, kidney sections",reduced
same,degree of cellular regeneration (PCNA),"[3]; 2.8 mg/kg bw, kidney sections",increased
same,macrophage infiltration,"[3]; 2.8 mg/kg bw, kidney sections",reduced
same,smooth muscle loss,"[3]; 2.8 mg/kg bw, kidney sections",reduced
same,cisplatin-induced level of creatinine in serum,"[3]; 0.28, 2.8 and 28 mg/kg bw i.v.",reduces the cisplatin-induced level of creatinine in serum
same,"reduction of serum creatinine rise following cisplatin, versus positive control","[3]; highest dose (28 mg/kg), positive control rhmBMP-7",more efficacious than the positive control
same,nephrotoxic effects of cisplatin exposure,"[3]; rat, in vivo",can reduce or ameliorate the nephrotoxic effects of cisplatin exposure
same,cisplatin-induced apoptosis,HK-2 cells,inhibits cisplatin-induced apoptosis
